# Laboratory results from ChEMBL document CHEMBL4411339, “Design, synthesis and antimycobacterial activity of less lipophilic Q203 derivatives containing alkaline fused ring moieties” (Bioorg Med Chem, 2019).
# Key:
# [1] = Cytotoxicity against African green monkey Vero cells assessed as reduction in cell viability after 72 hrs by MTT assay; assay type: cell-based; details: chlorocebus sabaeus
# hERG (KCNH2) = hERG (KCNH2) (Homo sapiens, UniProt Q12809); test: Inhibition of human ERG at 10 uM relative to control
# [2] = AUC (0 to infinity) in specific pathogen free ICR mouse at 25 mg/kg, po administered as single dose by HPLC analysis; assay type: ADME, organism-based; set-up: dose 25 mg/kg, time infinity, route oral; details: in vivo
# [3] = Acute toxicity in specific pathogen free ICR mouse at 500 mg/kg, po administered as single dose measured up to 7 days; assay type: organism-based; details: in vivo, 168 h
# [4] = Tmax in specific pathogen free ICR mouse at 25 mg/kg, po administered as single dose by HPLC analysis; assay type: ADME, organism-based; details: in vivo
# [5] = test system: Mycobacterium tuberculosis; test: Antimycobacterial activity against Mycobacterium tuberculosis H37Rv ATCC 27294 after 7 days by microplate alamar blue assay; assay type: functional; details: H37Rv ATCC 27294, 168 h
# [6] = Cmax in specific pathogen free ICR mouse at 25 mg/kg, po administered as single dose by HPLC analysis; assay type: ADME, organism-based; set-up: dose 25 mg/kg, route oral; details: in vivo
# [7] = Elimination half life in specific pathogen free ICR mouse at 25 mg/kg, po administered as single dose by HPLC analysis; assay type: ADME, organism-based; details: in vivo, read-out: beta t1/2 (converted)
# [8] = Aqueous solubility of the compound in pH 2 0.01M HCl incubated under stirred condition for 12 hrs by UV-HPLC analysis; assay type: physicochemical
# Chain of hERG (KCNH2) (Q12809 whole entry): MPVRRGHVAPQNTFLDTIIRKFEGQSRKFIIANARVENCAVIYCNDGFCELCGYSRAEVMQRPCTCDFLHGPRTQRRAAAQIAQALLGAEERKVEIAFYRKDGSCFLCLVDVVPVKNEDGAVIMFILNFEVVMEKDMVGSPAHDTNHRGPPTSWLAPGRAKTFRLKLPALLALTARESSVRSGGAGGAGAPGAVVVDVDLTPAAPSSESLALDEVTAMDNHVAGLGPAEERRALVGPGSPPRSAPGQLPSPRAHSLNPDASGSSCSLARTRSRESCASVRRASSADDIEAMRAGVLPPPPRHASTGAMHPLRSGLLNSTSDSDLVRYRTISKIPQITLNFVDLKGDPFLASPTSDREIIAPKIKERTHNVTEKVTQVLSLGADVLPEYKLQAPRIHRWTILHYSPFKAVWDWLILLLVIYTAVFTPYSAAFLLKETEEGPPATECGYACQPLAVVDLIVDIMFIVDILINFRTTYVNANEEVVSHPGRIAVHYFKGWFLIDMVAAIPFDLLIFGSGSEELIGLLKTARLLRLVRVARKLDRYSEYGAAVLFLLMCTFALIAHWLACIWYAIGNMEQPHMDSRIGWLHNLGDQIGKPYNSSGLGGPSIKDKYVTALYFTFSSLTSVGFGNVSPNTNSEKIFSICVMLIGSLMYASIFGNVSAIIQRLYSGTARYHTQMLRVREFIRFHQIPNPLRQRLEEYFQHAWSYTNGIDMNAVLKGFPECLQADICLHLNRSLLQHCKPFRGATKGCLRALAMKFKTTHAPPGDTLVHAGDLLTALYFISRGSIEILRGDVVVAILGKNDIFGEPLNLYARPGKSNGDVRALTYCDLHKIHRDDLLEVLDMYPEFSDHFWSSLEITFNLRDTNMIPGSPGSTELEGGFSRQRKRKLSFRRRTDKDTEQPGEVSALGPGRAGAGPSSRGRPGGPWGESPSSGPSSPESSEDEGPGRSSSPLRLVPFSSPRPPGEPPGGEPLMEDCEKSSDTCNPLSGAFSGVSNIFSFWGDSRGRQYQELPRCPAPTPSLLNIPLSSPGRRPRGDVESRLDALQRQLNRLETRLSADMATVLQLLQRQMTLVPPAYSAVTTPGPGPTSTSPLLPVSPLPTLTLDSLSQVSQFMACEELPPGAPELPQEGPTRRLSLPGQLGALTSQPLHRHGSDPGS
SMILES,CC50 at 72 h [1] [µg/mL],inhibition at 10 µM (hERG (KCNH2)) [%],AUC(0-inf) [2] [ng·h/mL],Activity [3],Tmax [4] [h],MIC [5] [µM],Cmax [6] [ng/mL],half-life [7] [h],solubility at 12 h [8] [µg/mL]
CCc1nc2ccc(Cl)cn2c1C(=O)NCc1ccc2c(c1)CN(Cc1ccc(OC(F)(F)F)cc1)C2,> 64,50,3600,Non-Toxic,0.417,0.051,1310,5.13,–
CCc1nc2ccc(Cl)cn2c1C(=O)NCc1ccc2c(c1)CN(C(C)c1ccc(OC(F)(F)F)cc1)C2 (stereo not given),> 64,50,7610,Non-Toxic,0.333,< 0.035,3990,9.08,–
CCc1nc2cc(Cl)ccn2c1C(=O)NCc1ccc2c(c1)CCN(Cc1ccc([N+](=O)[O-])o1)C2,> 64,71,–,–,–,< 0.035,–,–,–
CCc1nc2ccc(Cl)cn2c1C(=O)NCc1ccc2c(c1)CCN(Cc1ccc(C(F)(F)F)cn1)C2,> 64,25,25600,Non-Toxic,0.583,0.053,8060,3.2,–
CCc1nc2ccc(Cl)cn2c1C(=O)NCc1ccc2c(c1)CCN(Cc1ccc(C)cc1)C2,51,54,–,–,–,< 0.035,–,–,–
CCc1nc2cc(Cl)ccn2c1C(=O)NCc1ccc2c(c1)CCN(Cc1ccc(C(C)(C)C)cc1)C2,14,–,–,–,–,0.12,–,–,–
O=c1nc(N2CCN(CC3CCCCC3)CC2)sc2c([N+](=O)[O-])cc(C(F)(F)F)cc12 [MACOZINONE],31,41,1600,–,–,< 0.035,–,–,1130
CCc1nc2ccc(Cl)cn2c1C(=O)NCc1ccc2c(c1)CCN(Cc1ccc(OC)cc1)C2,2,–,–,–,–,< 0.035,–,–,–
CCc1nc2ccc(Cl)cn2c1C(=O)NCc1ccc2c(c1)CCN(Cc1ccc([N+](=O)[O-])o1)C2,–,–,–,–,–,0.25,–,–,–
CCc1nc2ccc(Cl)cn2c1C(=O)NCc1ccc2c(c1)CCN(CCc1ccc(C(F)(F)F)cn1)C2,48,13,54900,Non-Toxic,0.25,< 0.035,22100,5.39,2100
CCc1nc2ccc(Cl)cn2c1C(=O)NCc1ccc2c(c1)CCN(Cc1cc(F)cc(F)c1)C2,14,–,–,–,–,< 0.035,–,–,–
CCc1nc2cc(Cl)ccn2c1C(=O)NCc1ccc2c(c1)CCN(Cc1ccc(Br)cc1)C2,–,–,–,–,–,0.31,–,–,–
CCc1nc2cc(Cl)ccn2c1C(=O)NCc1ccc2c(c1)CCN(CCc1ccc(C(F)(F)F)nc1)C2,–,–,–,–,–,0.19,–,–,–
CCc1nc2cc(Cl)ccn2c1C(=O)NCc1ccc2c(c1)CCN(Cc1cc(F)cc(F)c1)C2,48,48,24100,Non-Toxic,0.667,< 0.035,5380,9.06,–
CCc1nc2ccc(Cl)cn2c1C(=O)NCc1ccc2c(c1)CCN(Cc1ccc(C(F)(F)F)cc1)C2,> 64,50,7800,Non-Toxic,0.25,0.13,3000,4.98,–
CCc1nc2ccc(Cl)cn2c1C(=O)NCc1ccc2c(c1)CCN(CCc1ccc(C(F)(F)F)nc1)C2,> 64,44,1480,Non-Toxic,0.25,0.047,1630,1.79,–
CCc1nc2cc(Cl)ccn2c1C(=O)NCc1ccc2c(c1)CCN(Cc1ccc(F)cc1)C2,–,–,–,–,–,0.19,–,–,–
CCc1nc2cc(Cl)ccn2c1C(=O)NCc1ccc2c(c1)CCN(CCc1ccc(C(F)(F)F)cn1)C2,25,–,–,–,–,< 0.035,–,–,–
CCc1nc2ccc(Cl)cn2c1C(=O)NCc1ccc2c(c1)CCN(Cc1ccc(F)cc1)C2,> 64,60,–,–,–,< 0.035,–,–,–
CCc1nc2cc(Cl)ccn2c1C(=O)NCc1ccc2c(c1)CCN(Cc1ccc(C(F)(F)F)cc1)C2,–,–,–,–,–,0.91,–,–,–
CCc1nc2ccc(Cl)cn2c1C(=O)NCc1ccc2c(c1)CCN(Cc1ccc(C(C)(C)C)cc1)C2,37,31,4210,Non-Toxic,0.5,< 0.035,1080,9.35,–
CO[C@H]1/C=C/O[C@@]2(C)Oc3c(C)c(O)c4c(O)c(c(/C=N/N5CCN(C)CC5)c(O)c4c3C2=O)NC(=O)/C(C)=C\C=C\[C@H](C)[C@H](O)[C@@H](C)[C@@H](O)[C@@H](C)[C@H](OC(C)=O)[C@@H]1C [RIFAMPIN],–,–,–,–,–,0.12,–,–,–
CCc1nc2cc(Cl)ccn2c1C(=O)NCc1ccc2c(c1)CCN(Cc1ccc(OC)cc1)C2,32,64,–,–,–,< 0.035,–,–,–
NNC(=O)c1ccncc1 [ISONIAZID],–,–,–,–,–,0.27,–,–,–
CCc1nc2cc(Cl)ccn2c1C(=O)NCc1ccc2c(c1)CCN(Cc1ccc(C)cc1)C2,–,–,–,–,–,0.27,–,–,–
CCc1nc2ccc(Cl)cn2c1C(=O)NCc1ccc2c(c1)CCN(Cc1ccc(C(F)(F)F)nc1)C2,7,–,–,–,–,0.097,–,–,–
CCc1nc2ccc(Cl)cn2c1C(=O)NCc1ccc(N2CCC(c3ccc(OC(F)(F)F)cc3)CC2)cc1 [TELACEBEC],> 64,50,46600,–,2.67,< 0.035,3780,18.7,79
CCc1nc2ccc(Cl)cn2c1C(=O)NCc1ccc2c(c1)CCN(Cc1ccc(Br)cc1)C2,30,–,–,–,–,< 0.035,–,–,–
